This passage reports IC50 results from patent US8017612B2, “Piperazine compound and use thereof as a HCV polymerase inhibitor” (priority 2006, dated 2011).

One may read the IC50 as the concentration that gives 50% inhibition.

Assay [1] addresses T1, HCV polymerase (NS5B) type 1b (Hepatitis C virus genotype 1b, UniProt P26663).
T1 construct: a region encoding NS5B (J Virol 1991 March, 65(3), 1105-13, 544 amino acids after deletion of 47 amino acids on the C-terminal); 6xHis (C); made in house; host or cells: Escherichia coli
Put plainly: Assay of enzyme (HCV polymerase) inhibitory activity, type 1b enzyme. The note with it: HCV polymerase inhibitory activity (IC50), 1b, type 1b enzyme 0.5 μg/ml, 25° C., 60 min. In kind it is biochemical, HCV BK strain (type 1b). The gist of the method:
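IC50 derived from [3H]UTP incorporation into TCA-insoluble RNA, compared with and without test compound. Reaction (25 °C, 60 min, Tris pH 7.5, 5 mM MgCl2): E. coli-expressed 1b NS5B Δ47 with His tag at 0.5 μg/ml, 5 μg/ml run-off substrate RNA, ATP/GTP/CTP 50 μM, UTP 2 μM.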

The target of assay [2] is T2, HCV polymerase (NS5B) type 1a (Hepatitis C virus genotype 1a, UniProt P26664).
T2 construct: made in house; host or cells: Escherichia coli (by the 'similar method' of the 1b enzyme)
Put plainly: Assay of enzyme (HCV polymerase) inhibitory activity, type 1a enzyme. The conditions noted are these: HCV polymerase inhibitory activity (IC50), 1a, type 1a enzyme 1.5 μg/ml, 25° C., 60 min. It is filed as biochemical, HCV type 1a (cloned from the blood of patients). The gist of the method:
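Reactions ran 60 min at 25° C in 20 mM Tris-HCl pH 7.5, 5 mM MgCl2, 50 mM NaCl, holding genotype 1a NS5B (1.5 μg/ml, Δ47 C-terminus, 6His), substrate RNA 5 μg/ml, UTP 2 μM with tritiated UTP and other NTPs 50 μM. IC50 derived from incorporated radiolabel in filter-trapped RNA relative to uninhibited reaction.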

In the case of `COc1nsc(N2CCN(S(=O)(=O)c3ccc(OC(F)(F)F)cc3)[C@@H](C(=O)NCc3ccc(C(C)(C)C)cc3)C2)n1` [Example 606, (R)-4-(3-methoxy-[1,2,4]thiadiazol-5-yl)-1-(4-trifluoromethoxy-benzenesulfonyl)-piperazine-2-carboxylic acid 4-tert-butyl-benzylamide], the IC50 in assay [1] and in assay [2] was below 100 nM throughout.
Regarding `CCC(F)(F)c1ccc(CNC(=O)[C@H]2CN(C(=O)Nc3cncs3)CCN2S(=O)(=O)c2ccc(OC(F)(F)F)cc2)cc1` [Example 607, (R)-4-(4-trifluoromethoxy-benzenesulfonyl)-piperazine-1,3-dicarboxylic acid 3-[4-(1,1-difluoro-propyl)-benzylamide] 1-thiazol-5-ylamide], the IC50 in assay [1] and in assay [2] was 100 to 1000 nM each time.
Turning to `COc1ccc(CNC(=O)[C@H]2CN(C(C)=O)CCN2S(=O)(=O)c2ccc(OC(F)(F)F)cc2)cc1` [Example 608, (R)-4-acetyl-1-(4-trifluoromethoxy-benzenesulfonyl)-piperazine-2-carboxylic acid 4-methoxy-benzylamide], the IC50 in assay [1] and in assay [2] was 100 to 1000 nM each time.
Take `CCC(F)(F)c1ccc(CNC(=O)[C@H]2CN(C(=O)C(C)C)CCN2S(=O)(=O)c2ccc(OC(F)(F)F)cc2)cc1` [Example 609, (R)-4-isobutyryl-1-(4-trifluoromethoxy-benzenesulfonyl)-piperazine-2-carboxylic acid 4-(1,1-difluoro-propyl)-benzylamide]: the IC50 in assay [1] was 100 to 1000 nM; in assay [2] it was above 1000 nM.
The matching figures for `CCC(F)(F)c1ccc(CNC(=O)[C@H]2CN(C(=O)C3CC3)CCN2S(=O)(=O)c2ccc(OC(F)(F)F)cc2)cc1` [Example 610, (R)-4-cyclopropanecarbonyl-1-(4-trifluoromethoxy-benzenesulfonyl)-piperazine-2-carboxylic acid 4-(1,1-difluoro-propyl)-benzylamide]: 100 to 1000 nM and 100 to 1000 nM.
`CCC(F)(F)c1ccc(CNC(=O)[C@H]2CN(C(=O)C(C)(C)C)CCN2S(=O)(=O)c2ccc(OC(F)(F)F)cc2)cc1` [Example 611, (R)-4-(2,2-dimethyl-propionyl)-1-(4-trifluoromethoxy-benzenesulfonyl)-piperazine-2-carboxylic acid 4-(1,1-difluoro-propyl)-benzylamide]: the IC50 in assay [1] and in assay [2] was above 1000 nM each time.
Consider `CCC(F)(F)c1ccc(CNC(=O)[C@H]2CN(C(=O)Nc3nc(C(C)(C)O)cs3)CCN2S(=O)(=O)c2ccc(OC(F)(F)F)cc2)cc1` [Example 612, (R)-4-(4-trifluoromethoxy-benzenesulfonyl)-piperazine-1,3-dicarboxylic acid 3-[4-(1,1-difluoro-propyl)-benzylamide] 1-{[4-(1-hydroxy-1-methyl-ethyl)-thiazol-2-yl]-amide}], for which the IC50 in assay [1] is 100 to 1000 nM; in assay [2], above 1000 nM.
In the same order, the values of `CC(=O)N1CCN(S(=O)(=O)c2ccc(OC(F)(F)F)cc2)[C@@H](C(=O)NCc2ccc(O)cc2)C1` [Example 613, (R)-4-acetyl-1-(4-trifluoromethoxy-benzenesulfonyl)-piperazine-2-carboxylic acid 4-hydroxy-benzylamide] are above 1000 nM and above 1000 nM.
In the same order, the values of `CC(=O)N1CCN(S(=O)(=O)c2ccc(OC(F)(F)F)cc2)[C@@H](C(=O)NCc2ccc(-c3ccccc3)s2)C1` [Example 614, (R)-4-acetyl-1-(4-trifluoromethoxy-benzenesulfonyl)-piperazine-2-carboxylic acid (5-phenyl-thiophen-2-ylmethyl)-amide] are 100 to 1000 nM and 100 to 1000 nM.
For `CCC(F)(F)c1ccc(CNC(=O)[C@H]2CN(c3cnc4cncnc4n3)CCN2S(=O)(=O)c2ccc(OC(F)(F)F)cc2)cc1` [Example 615, (R)-4-pteridin-7-yl-1-(4-trifluoromethoxy-benzenesulfonyl)-piperazine-2-carboxylic acid 4-(1,1-difluoro-propyl)-benzylamide], the IC50 in assay [1] and in assay [2] was below 100 nM in each case.
Turning to `CCC(F)(F)c1ccc(CNC(=O)[C@H]2CN(c3cnc4c(n3)NC(=O)OC4)CCN2S(=O)(=O)c2ccc(OC(F)(F)F)cc2)cc1` [Example 616, (R)-4-(2-oxo-1,4-dihydro-2H-pyrazino[2,3-d][1,3]oxazin-7-yl)-1-(4-trifluoromethoxy-benzenesulfonyl)-piperazine-2-carboxylic acid 4-(1,1-difluoro-propyl)-benzylamide], the half-inhibitory concentration (IC50) in assay [1] and in assay [2] was below 100 nM each time.
On to `CC(C)(C)c1ccc(CNC(=O)[C@H]2CN(c3cnc4cncnc4n3)CCN2S(=O)(=O)c2ccc(OC(F)(F)F)cc2)cc1` [Example 617, (R)-4-pteridin-7-yl-1-(4-trifluoromethoxy-benzenesulfonyl)-piperazine-2-carboxylic acid 4-tert-butyl-benzylamide], for which the IC50 in assay [1] and in assay [2] was below 100 nM in each case.
In the case of `CC(C)(C)c1ccc(CNC(=O)[C@H]2CN(c3nc4nn[nH]c(=O)c4s3)CCN2S(=O)(=O)c2ccc(OC(F)(F)F)cc2)cc1` [Example 618, (R)-4-(4-oxo-3,4-dihydro-thiazolo[4,5-d][1,2,3]triazin-6-yl)-1-(4-trifluoromethoxy-benzenesulfonyl)-piperazine-2-carboxylic acid 4-tert-butyl-benzylamide], the IC50 in assay [1] and in assay [2] was below 100 nM in each case.
With `CCN(C)c1ccc(CNC(=O)[C@H]2CN(c3cnc4cncnc4n3)CCN2S(=O)(=O)c2ccc(OC(F)(F)F)cc2)cc1` [Example 619, (R)-4-pteridin-7-yl-1-(4-trifluoromethoxy-benzenesulfonyl)-piperazine-2-carboxylic acid 4-(ethyl-methyl-amino)-benzylamide], the IC50 in assay [1] and in assay [2] was below 100 nM in each case.
For `CC(C)(C)c1ccc(CNC(=O)[C@H]2CN(c3ccc(C(=O)O)nc3)CCN2S(=O)(=O)c2ccc(OC(F)(F)F)cc2)cc1` [Example 620, 5-[(R)-3-(4-tert-butyl-benzylcarbamoyl)-4-(4-trifluoromethoxy-benzenesulfonyl)-piperazin-1-yl]-pyridine-2-carboxylic acid], the IC50 in assay [1] and in assay [2] was below 100 nM in each case.
On to `CC(=O)N1CCN(S(=O)(=O)c2ccc(OC(F)(F)F)cc2)[C@@H](C(=O)NCC2(O)CCCCC2)C1` [Example 621, (R)-4-acetyl-1-(4-trifluoromethoxy-benzenesulfonyl)-piperazine-2-carboxylic acid (1-hydroxy-cyclohexylmethyl)-amide], for which the IC50 in assay [1] and in assay [2] was above 1000 nM throughout.
In the case of `CC(=O)N1CCN(S(=O)(=O)c2ccc(OC(F)(F)F)cc2)[C@@H](C(=O)NCc2ccc(-c3cccs3)s2)C1` [Example 622, (R)-4-acetyl-1-(4-trifluoromethoxy-benzenesulfonyl)-piperazine-2-carboxylic acid ([2,2′]bithiophenyl-5-ylmethyl)-amide], the IC50 is 100 to 1000 nM in assay [1] and below 100 nM in assay [2].
The matching figures for `CC(=O)N1CCN(S(=O)(=O)c2ccc(OC(F)(F)F)cc2)[C@@H](C(=O)NCc2ccc(-c3cccs3)cc2)C1` [Example 623, (R)-4-acetyl-1-(4-trifluoromethoxy-benzenesulfonyl)-piperazine-2-carboxylic acid 4-thiophen-2-yl-benzylamide]: 100 to 1000 nM and below 100 nM.
As for `CCCc1ccc(CNC(=O)[C@H]2CN(C(C)=O)CCN2S(=O)(=O)c2ccc(OC(F)(F)F)cc2)cc1O` [Example 624, (R)-4-acetyl-1-(4-trifluoromethoxy-benzenesulfonyl)-piperazine-2-carboxylic acid 3-hydroxy-4-propyl-benzylamide], the IC50 was 100 to 1000 nM in assay [1] and above 1000 nM in assay [2].
In the same order, the values of `CCC(F)(F)c1ccc(CNC(=O)[C@H]2CN(c3nc(OC)ns3)CCN2S(=O)(=O)c2ccc(OC(F)(F)F)cc2)cc1` [Example 625, (R)-4-(3-methoxy-[1,2,4]thiadiazol-5-yl)-1-(4-trifluoromethoxy-benzenesulfonyl)-piperazine-2-carboxylic acid 4-(1,1-difluoro-propyl)-benzylamide] are below 100 nM and below 100 nM.
In the same order, the values of `CCC(F)(F)c1ccc(CNC(=O)[C@H]2CN(c3ccn4ncnc4n3)CCN2S(=O)(=O)c2ccc(OC(F)(F)F)cc2)cc1` [Example 626, (R)-4-[1,2,4]triazolo[1,5-a]pyrimidin-5-yl-1-(4-trifluoromethoxy-benzenesulfonyl)-piperazine-2-carboxylic acid 4-(1,1-difluoro-propyl)-benzylamide] are below 100 nM and below 100 nM.
`O=C(NCc1ccc(OC(F)(F)F)cc1)[C@H]1CN(c2cnc3cncnc3n2)CCN1S(=O)(=O)c1ccc(OC(F)(F)F)cc1` [Example 627, (R)-4-pteridin-7-yl-1-(4-trifluoromethoxy-benzenesulfonyl)-piperazine-2-carboxylic acid 4-trifluoromethoxy-benzylamide]: the IC50 in assay [1] and in assay [2] was below 100 nM each time.
